The values that follow are results of earlier work, collected in patent US20130316464A1, “ANALYTE […] AND METHOD” (priority 2010, published 2013).

The series has as its system erythrocytes. The following applies: whole blood.

As for `CC(C)c1cccc(C(C)C)c1O` [propofol, 2,6-diisopropylphenol], the “proportion of the propofol partitioned into / bound to blood cells (erythrocytes)” value was 30-40%.
